Reference: US12653899B2, “Multi-targeted, tunable, sustained delivery of payloads to charged avascular tissues” (Massachusetts Institute of Technology, priority 2019, dated 2026)

System: human ankle cartilage explants treated with IL-1β
Experiment: IL-1β cytokine challenge model, sGAG biosynthesis rate in human ankle cartilage explants
Assay type: cell-based
Conditions: for rescue of the biosynthesis loss caused by human IL-1β: days 6-8
Protocol: Cartilage was harvested from the ankles of a donor (Collins Grade 1) and a donor (Collins Grade 1). Cartilage explants were equilibrated in culture media for 2 days after harvest. […] These were cut down to 1 mm thickness and allowed to equilibrate for a further 2 days before experiments were set up. Human IL-1β was used to induce osteoarthritis-like changes in cartilage. Experiments were set up to identify IL-1β doses at which 40 nM of free IGF-1 can rescue the IL-1β induced biosynthesis loss in cartilage. A dose response experiment in which single doses of (+9GFP)-(GGGGS)4-(IGF-1) (SEQ ID NO: 7) and (+9GFP)-(EAAAK)3-(IGF-1) (SEQ ID NO: 8) were added along with 100 pg/ml human IL-1β was also set up.
Experimental groups (N=8 to 10 cartilage explants in each group): Untreated control (Ctrl in FIG. 6A and FIG. 6B), 10 pg/mL human IL-1β (10 pg/ml IL-1b in FIG. 6A and FIG. 6B), 10 pg/mL human IL-1β+40 nM IGF-1 (10 pg/ml IL-1b+40 nM IGF-1 in FIG. 6A and FIG. 6B), 100 pg/mL human IL-1β (100 pg/ml IL-1b in FIG. 6A and FIG. 6B), 100 pg/mL human IL-1β+40 nM IGF-1 (100 pg/ml IL-1b+40 nM IGF-1 in FIG. 6A and FIG. 6B), 500 pg/mL human IL-1β (500 pg/ml IL-1b in FIG. 6A and […]), 500 pg/mL human IL-1β+40 nM IGF-1 (500 pg/ml IL-1b+40 nM IGF-1 in FIG. 6A and FIG. 6B), 1000 pg/mL human IL-1β (1 ng/ml IL-1b in FIG. 6A and FIG. 6B), 1000 pg/mL human IL-1β+40 nM IGF-1 (1 ng/ml IL-1b+40 nM IGF-1 in FIG. 6A and FIG. 6B). Media changes were performed every 2 days and the experiment was terminated after 8 days.
Chondrocyte biosynthesis rate (primarily aggrecan synthesis) was measured between days 6 and 8 of the experiment using a 35S-sulfate radiolabel. Statistics: 1-way ANOVA with post-hoc Tukey's HSD test.
This experiment was set up with cartilage explants from the donor ankle. Experimental groups (N=8 to 10 cartilage explants in each group): Untreated control (Ctrl in FIG. 6C), Continuous human IL-1β control (100 pg/ml dose added with every media change) (IL-1b in FIG. 6C), Continuous human IL-1β+continuous free IGF-1 control (100 pg/ml human IL-1β and 40 nM free IGF-1 dose added with every media change) (IL-1b+IGF1 FIG. 6C), Continuous human IL-1β+(+9GFP)-(GGGGS)4-(IGF-1) (SEQ ID NO: 7) 500 nM single dose (100 pg/ml human IL-1β added with every media change; Single 500 nM fusion protein dose added on Day 0) (IL-1b+0.5 μM Flex-1 in FIG. 6C), Continuous human IL-1β+(+9GFP)-(GGGGS)4-(IGF-1) (SEQ ID NO: 7) 1 μM single dose (100 pg/ml human IL-1β added with every media change; Single 1 μM fusion protein dose added on Day 0) (IL-1b+1 μM Flex-1 in FIG. 6C), Continuous human IL-1β+(+9GFP)-(EAAAK)3-(IGF-1) (SEQ ID NO: 8) 500 nM single dose (100 pg/ml human IL-1β added with every media change; Single 500 nM fusion protein dose added on Day 0), Continuous human IL-1β+(+9GFP)-(EAAAK)3-(IGF-1) (SEQ ID NO: 8) 1 μM single dose (100 pg/ml human IL-1β added with every media change; Single 1 μM fusion protein dose added on Day 0) (IL-1b+1 μM Rig-1 in FIG. 6C).
Preliminary dose response experiments were performed to test the effects of human IL-1β (PeproTech, Rocky Hill, NJ) on human ankle cartilage. Ankle cartilage explants from two different donors (equilibrated in culture medium post-harvest) were cultured in serum-free low glucose medium (same composition as equilibration medium) and treated with continuous IL-1β doses ranging from 10 pg/ml to 1 ng/ml for 8 days. The experiments also included groups of explants that were treated with 300 ng/ml free IGF-1 at each dose level of IL-1β. Based on the results of these experiments, 100 pg/ml IL-1β was chosen as the dose used for the fusion protein dose response experiments. In these experiments, ankle and knee cartilage explants (equilibrated in culture medium post-harvest) were treated continuously with IL-1β and received single doses of fusion proteins (ranging from 39.2 nM to 2 μM) at the start of the experiments. […]

[1] = single 2 μM dose, 100 pg/ml IL-1β, 10-day experiment (FIG. 15B)

Substance	rescue of the biosynthesis loss caused by human IL-1β (both dose levels (single 500 nM and 1 μM), 100 pg/ml human IL-1β, donor)	rescue of the loss of biosynthesis caused by IL-1β (single 1 μM dose, 100 pg/ml IL-1β, 7-day experiment (FIG. 15A))	rescue of the loss of biosynthesis caused by IL-1β [1]	rescue of the loss of biosynthesis caused by IL-1β (single 1 μM dose, 100 pg/ml IL-1β, 10-day experiment (FIG. 15B))	rescue of the loss of biosynthesis caused by IL-1β (single 2 μM dose, 100 pg/ml IL-1β, 7-day experiment (FIG. 15A))	rescue of the biosynthesis loss caused by human IL-1β (40 nM free IGF-1, 100 pg/ml human IL-1β)	rescue of the biosynthesis loss caused by human IL-1β (40 nM free IGF-1, 500 pg/ml and 1000 pg/ml human IL-1β)	biosynthesis rate versus untreated control (300 ng/ml IGF-1 + 10 pg/ml human IL-1β, both donors)	biosynthesis rate versus untreated control (300 ng/ml IGF-1 + 100 pg/ml human IL-1β, both donors)	biosynthesis rate versus untreated control (300 ng/ml IGF-1 + 500 pg/ml or 1 ng/ml human IL-1β, donor)	rescue of biosynthesis loss (continuous free IGF-1 300 ng/ml, 100 pg/ml IL-1β, 7-day and 10-day experiments)	rescue of biosynthesis loss (continuous free IGF-1, human IL-1β 1 ng/ml)
(+9GFP)-(EAAAK)3-(IGF-1): fusion protein of +9 GFP and human IGF-1 with rigid (EAAAK)3 linker, SEQ ID NO: 8	able to rescue	partial rescue	partially rescued	–	–	–	–	–	–	–	–	–
(+9GFP)-(GGGGS)4-(IGF-1): fusion protein of +9 GFP and human IGF-1 with flexible (GGGGS)4 linker, SEQ ID NO: 7	–	–	partially rescued	partially rescued	completely rescue	–	–	–	–	–	–	–
IGF-1: free recombinant human IGF-1 (PeproTech), pro-anabolic growth factor used as the positive control	–	–	–	–	–	completely rescue	partial rescue	surpassed the untreated control biosynthesis	not statistically significantly different from the untreated control	significantly lower biosynthesis compared to the untreated control	complete rescue	could not rescue
